Patent US9795602B2, “Polycyclic-carbamoylpyridone compounds and their pharmaceutical use” (Gilead Sciences, Inc., priority 2014, dated 2017)
pEC50: −log10 of the molar value. Read-outs that look alike come from different tables or passages of the source.

Key:
HIV-IIIb = test: Antiviral assay in MT4 cells; type: cell-based; details: MT4 cells, HIV-IIIb, 5 days, read-out: EC50
Procedure: 1 mL aliquots of 2×10^6 MT4 cells are pre-infected for 1 and 3 hours respectively at 37° C. with 25 μL (MT4) or of either cell growth medium (mock-infected) or a fresh 1:250 dilution of an HIV-IIIb concentrated ABI stock (0.004 m.o.i. for MT4 cells). Infected and uninfected cells are diluted in cell growth medium and 35 μL of 2000 (for MT4) cells is added to each well of the assay plates.
(§1) Assay plates were then incubated in a 37° C. incubator. After 5 days of incubation, 25 μL of 2× concentrated CellTiter-Glo™ Reagent (catalog # G7573, Promega Biosciences, Inc., Madison, Wis.) was added to each well of the assay plate. Cell lysis was carried out by incubating at room temperature for 2-3 minutes, and then chemiluminescence was read using the Envision reader (PerkinElmer).

[1] = Plasma protein binding (equilibrium dialysis); type: in vitro ADME; details: human, plasma (sodium EDTA) versus buffer; 2 μM in plasma vs. buffer, 24 hours at 37° C.; read-out: % Free HP/Buffer
Procedure: Plasma protein binding was determined using a HTD96b equilibrium dialyzer with a plate base, stainless steel pressure plate and Teflon bock. 9 Teflon bars, labeled sequentially from A through I, were assembled with two stainless steel connecting rods. Membranes were placed between two Teflon bars, with the membrane placed approximately 2 mm below the top edge of the bar and the lower membrane edge overlapped the bottom of all wells. The membrane was soaked for about 20 minutes in water, about 20 minutes in ethanol (30/70 v/v) and rinsed with water three times to remove the ethanol. It was soaked in PBS for at least 30 minutes. Plasma in sodium EDTA (Bioreclamation or equivalent) was used. The Plasma (not pH-adjusted) was stored at −80° C. and thawed at room temperature before use. The stock solution of the compounds tested was at 200 μM in DMSO. The quench solution used was 50 nM of an internal standard in 100% ACN. To prepare a 2 μM solution of the compound tested in plasma, 5 μL of a 200 μM stock solution was added to 495 μL of blank plasma. 100 μL plasma was added with 2 μM of test compound into one side of the well. 100 μL of buffer (for plasma vs. buffer) was added into another side of the well. The 96-well plate was covered using an adhesive sealing film and incubated for 24 hours at 37° C. under slow rotation. This procedure was replicated for each compound. 50 μL of plasma sample was put into a 96 well plate, 50 μL of buffer was added. 50 μL of buffer was put into a 96 well plate. 50 μL of plasma was added. 300 μL of quench solution was added and the plate sealed and shaken for 15 minutes. The material was centrifuged for 30 minutes at 3000 RPM and ˜250 μL was transferred into a short plate. The samples were analyzed by LC/MS. The resulting data is shown in the last row of Table 3 as “% Free” which corresponds to the percentage of compound not protein bound.

wild-type HIV-1 = test: Antiviral assay in MT-2 cells, wild-type HIV-1; type: cell-based; details: Human immunodeficiency virus 1, 120 h; MT2 cells, wild-type HIV-1, 5 days; read-out: wt
Procedure: (§2) For the antiviral assay utilizing MT-2 cells, 50 μL of 2× test concentration of 3-fold serially diluted compound in culture medium with 10% FBS was added to each well of a 96-well plate (9 concentrations) in triplicate. MT-2 cells were infected with wild-type or mutant variants of HIV-1 for 3 hours using a volume of viral inoculum determined to produce 90% cell killing. Fifty microliters of infected cell suspension in culture medium with 10% FBS (˜1.5×10^4 cells) was then added to each well containing 50 μL of serially diluted compound. The plates with HIV-infected cultures were then incubated at 37° C. for 5 days in the presence of the tested compounds. After 5 days of incubation, 100 μL of CellTiter-Glo™ Reagent (catalog # G7571, Promega Biosciences, Inc., Madison, Wis.) was added to each well. Cell lysis was carried out by incubating at room temperature for 10 min followed by a chemiluminescence read-out.
(§3) The chemiluminescence readout from the 10-point antiviral dose response was analyzed directly by curve fitting with equation (I) to determine the EC50.
(§4) where y=Cell Survival, M=maximum cell survival enabled by drug protection, H=baseline cell survival without drug protection, n=Hill coefficient of the antiviral dose response, m=Hill coefficient of the cytotoxicity dose response, and [I]=inhibitor concentration.
(§5) EC50 values (mean±standard deviation) were calculated from at least three independent experiments performed in triplicate. The fold-change in antiviral activity of tested compounds was calculated as a ratio of the mean EC50 for each mutant virus divided by the mean EC50 of the control WT virus.

HIV-1 E138K/Q148K = type: cell-based; details: MT2 cells; mean EC50 mutant / mean EC50 wt
Procedure: as §2, §3, §4, §5

HIV-1 G140S/Q148R = type: cell-based; details: MT2 cells; mean EC50 mutant / mean EC50 wt
Procedure: as §2, §3, §4, §5

HIV-1 E92Q/N155H = type: cell-based; details: MT2 cells; mean EC50 mutant / mean EC50 wt
Procedure: as §2, §3, §4, §5

HIV-1 N155H/Q148R = type: cell-based; details: MT2 cells; mean EC50 mutant / mean EC50 wt
Procedure: as §2, §3, §4, §5

[2] = Cytotoxicity (CC50) in MT4 cells, mock-infected; type: cell-based; details: human
Procedure: as §1, with “Infected and uninfected cells are diluted in cell growth medium and 35 μL of 2000 (for MT4) cells is added to each well of the assay plates. Assay” for “Assay”

PXR (NR1I2) = PXR (NR1I2) (Homo sapiens (Human), UniProt O75469); test: Human PXR activation assay (luciferase reporter, DPX2 cells); type: cell-based; details: human
Chain of PXR (NR1I2) (O75469 whole entry): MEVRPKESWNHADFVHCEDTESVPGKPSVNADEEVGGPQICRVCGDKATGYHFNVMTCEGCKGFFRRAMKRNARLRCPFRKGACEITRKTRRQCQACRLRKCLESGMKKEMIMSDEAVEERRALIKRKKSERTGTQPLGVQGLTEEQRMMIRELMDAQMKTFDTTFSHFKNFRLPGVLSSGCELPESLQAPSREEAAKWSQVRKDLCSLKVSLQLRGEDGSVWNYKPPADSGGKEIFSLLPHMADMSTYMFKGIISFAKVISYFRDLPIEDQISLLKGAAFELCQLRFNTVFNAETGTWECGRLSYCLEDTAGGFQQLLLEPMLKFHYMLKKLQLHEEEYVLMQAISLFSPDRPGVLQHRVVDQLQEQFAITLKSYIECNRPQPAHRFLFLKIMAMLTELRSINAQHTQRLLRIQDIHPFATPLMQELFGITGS
Procedure: Luciferase Reporter Gene Assay.
A stably transformed tumor cell line (DPX2) was plated on 96-well microtiter plates. […]. The number of viable cells was determined and the reporter gene activity was assessed. […]

[3] = Human immunodeficiency virus 1, IIIB, MT4, 120 h
[4] = 15 uM, DPX2 cells, % Emax relative to rifampicin, adjusted for DMSO background, read-out: PXR % inh at 15 uM (adjusted)

| SMILES | pEC50 (HIV-IIIb; [3]) | inhibition at 24 h, 15 µM (PXR (NR1I2); [4]) [%] | inhibition at 24 h, 15 µM (PXR (NR1I2)) [%] | fraction unbound at 24 h, 2 µM [1] | pEC50 (wild-type HIV-1) | Resistance fold shift E138K/Q148K vs. wild type (HIV-1 E138K/Q148K) [fold shift] | Resistance fold shift G140S/Q148R vs. wild type (HIV-1 G140S/Q148R) [fold shift] | Resistance fold shift E92Q/N155H vs. wild type (HIV-1 E92Q/N155H) [fold shift] | Resistance fold shift N155H/Q148R vs. wild type (HIV-1 N155H/Q148R) [fold shift] | CC50 at 5 days ([2]; mock-infected (uninfected)) [nM] | pEC50 (HIV-IIIb; Human immunodeficiency virus 1, 120 h) | CC50 at 5 days ([2]; mock-infected) [nM] |
| --- | --- | --- | --- | --- | --- | --- | --- | --- | --- | --- | --- | --- |
| CCN1C(=O)c2c(O)c(=O)c(C(=O)NCc3c(F)cc(F)cc3F)cn2[C@H]2CCOC[C@H]21 [Compound 33] | 8.55 | 12 | – | 0.056 | 8.60 | 5.9 | 2.5 | 0.9 | 2.2 | 31100 | – | – |
| CCN1C(=O)c2c(O)c(=O)c(C(=O)NCc3ccc(F)cc3F)cn2[C@H]2CCOC[C@H]21 [Compound 41] | 8.54 | 21 | – | 0.057 | 8.70 | 3.5 | 2.9 | 2.1 | 1.8 | 27400 | – | – |
| CCN1C(=O)c2c(O)c(=O)c(C(=O)NCc3c(F)cc(F)cc3F)cn2[C@H]2COC[C@H]21 [Compound 44] | 8.25 | 32 | – | 0.068 | 8.11 | 23.8 | 5.9 | 2.3 | 17.7 | 38000 | – | – |
| CN1C(=O)c2c(O)c(=O)c(C(=O)NCc3c(F)cc(F)cc3F)cn2[C@H]2C[C@@H]3C[C@@H]3[C@H]21 [Compound 51, (6aR,6bS,7aS,8aS)-4-hydroxy-6-methyl-3,5-dioxo-N-(2,4,6-trifluorobenzyl)-5,6,6a,6b,7,7a,8,8a-octahydro-3H-cyclopropa[4,5]cyclopenta[1,2-e]pyrido[1,2-a]pyrazine-2-carboxamide] | – | 33 | – | – | – | – | – | – | – | – | 8.28 | 6710 |
| O=C(NCc1c(F)cc(F)cc1F)c1cn2c(c(O)c1=O)C(=O)N[C@H]1CCCC[C@@H]12 [Compound 61] | 8.20 | – | 0 | – | – | – | – | – | – | 31400 | – | – |
| O=C(NCc1c(F)cc(F)cc1F)c1cn2c(c(O)c1=O)C(=O)N[C@@H]1CCCC[C@H]12 [Compound 62] | 8.14 | – | 0 | – | – | – | – | – | – | 24200 | – | – |

The remaining compounds from weak to strong by pEC50 (HIV-IIIb; [3]), led by results:

| pEC50 (HIV-IIIb; [3]) | inhibition at 24 h, 15 µM (PXR (NR1I2); [4]) [%] | inhibition at 24 h, 15 µM (PXR (NR1I2)) [%] | SMILES | fraction unbound at 24 h, 2 µM [1] | pEC50 (wild-type HIV-1) | Resistance fold shift E138K/Q148K vs. wild type (HIV-1 E138K/Q148K) [fold shift] | Resistance fold shift G140S/Q148R vs. wild type (HIV-1 G140S/Q148R) [fold shift] | Resistance fold shift E92Q/N155H vs. wild type (HIV-1 E92Q/N155H) [fold shift] | Resistance fold shift N155H/Q148R vs. wild type (HIV-1 N155H/Q148R) [fold shift] | CC50 at 5 days ([2]; mock-infected (uninfected)) [nM] | pEC50 (HIV-IIIb; Human immunodeficiency virus 1, 120 h) | CC50 at 5 days ([2]; mock-infected) [nM] |
| --- | --- | --- | --- | --- | --- | --- | --- | --- | --- | --- | --- | --- |
| 8.22 | 46 | – | CN1C(=O)c2c(O)c(=O)c(C(=O)NCc3c(F)cc(F)cc3F)cn2[C@H]2[C@@H]3C[C@@H]3C[C@H]21 [Compound 53, (6aR,7aR,8aR,8bS)-4-hydroxy-6-methyl-3,5-dioxo-N-(2,4,6-trifluorobenzyl)-5,6,6a,7,7a,8,8a, 8b-octahydro-3H-cyclopropa[3,4]cyclopenta[1,2-e]pyrido[1,2-a]pyrazine-2-carboxamide] | – | – | – | – | – | – | – | – | 13300 |
| 8.31 | 24 | – | CN1C(=O)c2c(O)c(=O)c(C(=O)NCc3ccc(F)c(Cl)c3F)cn2[C@H]2C[C@@H]3C[C@@H]3[C@H]21 [Compound 52, (6aR,6bS,7aS,8aS)-N-(3-chloro-2,4-difluorobenzyl)-4-hydroxy-6-methyl-3,5-dioxo-5,6,6a,6b,7,7a,8,8a-octahydro-3H-cyclopropa[4,5]cyclopenta[1,2-e]pyrido[1,2-a]pyrazine-2-carboxamide] | – | – | – | – | – | – | – | – | 2820 |
| 8.47 | 44 | – | CN1C(=O)c2c(O)c(=O)c(C(=O)NCc3c(F)cc(F)cc3F)cn2[C@H]2CCCC[C@H]21 [Compound 59] | – | – | – | – | – | – | – | – | 11400 |
| 8.51 | 10 | – | CCN1C(=O)c2c(O)c(=O)c(C(=O)NCc3c(F)cc(F)cc3F)cn2[C@H]2COCC[C@H]21 [Compound 56, (4aR,11aR)-5-ethyl-7-hydroxy-6,8-dioxo-N-(2,4,6-trifluorobenzyl)-1,3,4,4a,5,6,8,11a-octahydropyrano[4,3-e]pyrido[1,2-a]pyrazine-9-carboxamide] | – | – | – | – | – | – | – | – | 4490 |
| 8.53 | 8 | – | C[C@@H]1OCC[C@H]2[C@@H]1N(C)C(=O)c1c(O)c(=O)c(C(=O)NCc3c(F)cc(F)cc3F)cn12 [Compound 54, (4S,4aS,11aS)-7-hydroxy-4,5-dimethyl-6,8-dioxo-N-(2,4,6-trifluorobenzyl)-1,2,4,4a,5,6,8,11a-octahydropyrano[3,4-e]pyrido[1,2-a]pyrazine-9-carboxamide] | – | – | – | – | – | – | – | – | 23900 |
| 8.64 | 3 | – | CCN1C(=O)c2c(O)c(=O)c(C(=O)NCc3ccc(F)c(Cl)c3F)cn2[C@H]2COCC[C@H]21 [Compound 57, (4aR,11aR)-N-(3-chloro-2,4-difluorobenzyl)-5-ethyl-7-hydroxy-6,8-dioxo-1,3,4,4a,5,6,8,11a-octahydropyrano[4,3-e]pyrido[1,2-a]pyrazine-9-carboxamide] | – | – | – | – | – | – | – | – | 6450 |
| 8.72 | 2 | – | C[C@@H]1OCC[C@H]2[C@@H]1N(C)C(=O)c1c(O)c(=O)c(C(=O)NCc3ccc(F)c(Cl)c3F)cn12 [Compound 55, (4S,4aS,11aS)-N-(3-chloro-2,4-difluorobenzyl)-7-hydroxy-4,5-dimethyl-6,8-dioxo-1,2,4,4a,5,6,8,11a-octahydropyrano[3,4-e]pyrido[1,2-a]pyrazine-9-carboxamide] | – | – | – | – | – | – | – | – | 9660 |
| 8.72 | 2 | – | O=C(NCc1c(F)cc(F)cc1F)c1cn2c(c(O)c1=O)C(=O)N[C@@H]1CCCC[C@@H]12 [Compound 60] | – | – | – | – | – | – | 13800 | – | – |
